The values below come from patent US6831199B1, “Pyrimidine compounds and derivatives thereof” (G. D. Searle & Co., priority 1995, dated 2004).

Counter-ions that a name gives are not always drawn.

In assay [1] the target is T1, Human fibrinogen receptor (αIIbβ3) (Homo sapiens, UniProt P05106+P08514).
T1 construct: Human fibrinogen receptor (αIIbβ3) was purified from outdated platelets; from tissue; host or cells: outdated human platelets
The assay is described as follows: Purified IIb/IIIa receptor assay (solid phase receptor assay, competition with biotinylated vitronectin). Type of assay: binding. To be noted: read-out: IIb/IIIa IC50. On the procedure:
PURIFIED IIb/IIIa RECEPTOR ASSAY
Human fibrinogen receptor (αIIbβ3) was purified from outdated platelets. […] Biotinylated human vitronectin was prepared by coupling NHS-biotin from Pierce Chemical Company (Rockford, Ill.) to purified vitronectin as previously described. […] Anti-biotin antibody was obtained from Calbiochem (La Jolla, Calif.). Linbro microtiter plates were obtained from Flow Labs (McLean, Va.). ADP reagent was obtained from Sigma (St. Louis, Mo.).
(§1) Solid Phase Receptor Assays
(§2) The purified human fibrinogen receptor (αIIbβ3) was diluted from stock solutions to 1.0 μg/mL in Tris-buffered saline containing 1.0 mM Ca^++, Mg^++, and Mn^++, pH 7.4 (TBS^+++). The diluted receptor was immediately transferred to Linbro microtiter plates at 100 μL/well (100 ng receptor/well). The plates were sealed and incubated overnight at 4° C. to allow the receptor to bind to the wells. All remaining steps were at room temperature. The assay plates were emptied and 200 μL of 1% RIA grade BSA in TBS^+++ (TBS^+++/BSA) were added to block exposed plastic surfaces. Following a 2 hour incubation, the assay plates were washed with TBS^+++ using a 96 well plate washer. Logarithmic serial dilution of the test compound and controls were made starting at a stock concentration of 2 mM and using 2 nM biotinylated vitronectin in TBS^+++/BSA as the diluent. This premixing of labeled ligand with test (or control) ligand, and subsequent transfer of 50 μL aliquots to the assay plate was carried out with a CETUS Propette robot; the final concentration of the labeled ligand was 1 nM and the highest concentration of test compound was 1.0×10^−4 M. The competition occurred for two hours after which all wells were washed with a plate washer as before. Affinity purified horseradish peroxidase labeled goat anti-biotin antibody was diluted 1:3000 in TBS^+++/BSA and 125 μL were added to each well. After 30 minutes, the plates were washed and incubated with ODD/H2O2 substrate in 100 mM/L citrate buffer, pH 5.0. The plate was read with a microtiter plate reader at a wavelength of 450 nm and when the maximum-binding control wells reached an absorbance of about 1.0, the final A450 were recorded for analysis. The data were analyzed using a macro written for use with the EXCEL™ spreadsheet program. The mean, standard deviation, and % CV were determined for duplicate concentrations. The mean A450 values were normalized to the mean of four maximum-binding controls (no competitor added)(B-MAX). The normalized values were subjected to a four parameter curve fit algorithm, [Robard et al., Int.

Assay [2] deals with T2, Human vitronectin receptor (αvβ3) (Homo sapiens, UniProt P05106+P06756).
T2 construct: Human vitronectin receptor (αvβ3) was purified from human placenta; from tissue; host or cells: human placenta
The assay is described as follows: Vitronectin adhesion assay (solid phase receptor assay, competition with biotinylated vitronectin). It is filed as binding. The following applies: read-out: AvB3 IC50. On the procedure:
VITRONECTIN ADHESION ASSAY
Assay buffer, OPD substrate tablets, and RIA grade BSA were obtained from Sigma (St. Louis, Mo.). Anti-biotin antibody was obtained from Calbiochem (La Jolla, Calif.). Linbro microtiter plates were obtained from Flow Labs (McLean, Va.). ADP reagent was obtained from Sigma (St. Louis, Mo.).
as §1
as §2, with “vitronectin” for “fibrinogen”, “(αvβ3)” for “(αIIbβ3)”, “TBS^+++(TBS^+++/BSA)” for “TBS^+++ (TBS^+++/BSA)”, “OPD/H2O2” for “ODD/H2O2”, “Citrate” for “citrate”, “algorithm [Rodbard” for “algorithm, [Robard”

Turning to `N=C(N)Nc1cccc(C(=O)NCC(=O)NC(CC(=O)O)c2cccc(Br)c2)c1` (racemic) [Example 185, (±)β-[[2-[[[3-[(aminoiminomethyl)amino]phenyl]carbonyl]amino]acetyl]amino]-3-bromobenzenepropanoic acid, trifluoroacetate salt], the IC50 in assay [1] came out at 166 nM; in assay [2] it was 1.47 nM.
For the molecule `N=C(N)Nc1cccc(C(=O)NC2(C(=O)NC(CC(=O)O)c3cccnc3)CC2)c1` (stereo not drawn) [Example 19, β-[[1-[[[3-[(aminoiminomethyl)amino]phenyl]carbonyl]amino]cycloprop-1-yl]carbonyl]amino]pyridine-3-propanoic acid, bis(trifluoroacetate)salt], the IC50 in assay [1] turned out to be 72000 nM; in assay [2], 303 nM.
Turning to `N=C(N)Nc1cccc(C(=O)NCC(=O)NC(CC(=O)O)c2ccc(Cl)c(Cl)c2)c1` (racemic) [Example 175, (±)β-[[2-[[[3-[(aminoiminomethyl)amino]phenyl]carbonyl]amino]acetyl]amino]-3,4-dichlorobenzenepropanoic acid, trifluoroacetate salt], the IC50 in assay [1] was 205 nM; in assay [2], 2.12 nM.
With `Cc1ccc(C)c(C(CC(=O)O)NC(=O)CNC(=O)c2cccc(NC(=N)N)c2)c1` (racemic) [Example 181, (±)β-[[2-[[[3-[(aminoiminomethyl)amino]phenyl]carbonyl]amino]acetyl]amino]-2,5-dimethylbenzenepropanoic acid, trifluoroacetate salt], the values for the IC50 in assay [1] and in assay [2] were 22800 nM and 132 nM, respectively.
On to `O=C(O)CC(NC(=O)CNC(=O)c1cccc(NC(=O)NCc2cc(Cl)cc(Cl)c2)c1)c1cccnc1` (stereo not drawn) [Example 273, β-[[2-[[[3-[[[[(3,5-dichlorophenyl)methyl]amino]carbonylamino]phenyl]carbonyl]amino]acetyl]amino]pyridine-3-propanoic acid, trifluoroacetate salt], for which the IC50 came to 4160 nM in assay [1] and 12.9 nM in assay [2].
On to `C#C[C@H](CC(=O)O)NC(=O)CNC(=O)c1ccc(Cl)c(NC(=N)N)c1` [Example 173, 3S-[[2-[[[3-[(aminoiminomethyl)amino]-4-chlorophenyl]carbonyl]amino]acetyl]amino]-4-pentynoic acid, trifluoroacetate salt], for which the IC50 in assay [1] was 17.4 nM; in assay [2], 0.5 nM.
`N=C(N)Nc1cccc(C(=O)NC2CCN(CCC(=O)O)C2=O)c1` (racemic) [Example 42, (±)3-[[[3-[(aminoiminomethyl)amino]phenyl]carbonyl]amino]-2-oxopyrrolidine-1-propanoic acid, trifluoroacetate salt]: the IC50 in assay [1] amounted to 9800 nM; in assay [2], 124 nM.
Consider `O=C(O)CC(NC(=O)CNC(=O)c1cccc(NC(=O)NCc2ccccc2)c1)c1cccc(Cl)c1` (stereo not drawn) [Example 270, 3-chloro-β-[[2-[[[3-[[[(phenylmethyl)amino]carbonyl]amino]phenyl]carbonyl]amino]acetyl]amino]benzenepropanoic acid, monohydrate], for which the values for the IC50 in assay [1] and in assay [2] were 9160 nM and 5.51 nM, respectively.
The matching figures for `N=C(N)Nc1cc(C(=O)NCC(=O)NC(CC(=O)O)c2cc(Br)cc(Br)c2)cc(C(F)(F)F)c1` (racemic) [Example 213, (±)β-[[2-[[[3-[(aminoiminomethyl)amino]-5-(trifluoromethyl)phenyl]carbonyl]amino]acetyl]amino]-3,5-dibromobenzenepropanoic acid, trifluoroacetate salt]: 334 nM and 2.93 nM.
On to `O=C(O)CC(NC(=O)CNC(=O)c1cccc(NC(=O)NNc2ccccc2)c1)c1cccnc1` (stereo not drawn) [Example 281, β-[[2-[[[3-[[[(phenylamino)amino]carbonyl]amino]phenyl]carbonyl]amino]acetyl]amino]pyridine-3-propanoic acid, trifluoroacetate salt], for which the IC50 in assay [1] amounted to 11500 nM; in assay [2], 4.16 nM.
For the molecule `COC(=O)CC(NC(=O)CNC(=O)c1cccc(NC(=N)N)c1)c1ccsc1` (racemic) [Example 57, (±)methyl β-[[2-[[[3-[(aminoiminomethyl)amino]phenyl]carbonyl]amino]acetyl]amino]thiophene-3-propanoate, trifluoroacetate salt], the IC50 in assay [1] is 15300 nM; in assay [2] it was 1340 nM.
For `N=C(N)Nc1cccc(C(=O)NCC(=O)NC(CC(=O)O)c2cc(N)ccc2O)c1` (racemic) [Example 234, (±)5-amino-β-[[2-[[[3-[(aminoiminomethyl)amino]phenyl]carbonyl]amino]acetyl]amino]-2-hydroxybenzenepropanoic acid, bis(trifluoroacetate)salt, monohydrate], the IC50 in assay [1] amounted to 830 nM; in assay [2] it was 89.3 nM.
The corresponding values for `O=C(O)CC(NC(=O)CNC(=O)c1cccc(NC2=NCCCS2)c1)c1cccnc1` (stereo not drawn) [Example 278, β-[[2-[[[3-[(5,6-dihydro-4H-thiazin-2-yl)amino]phenyl]carbonyl]amino]acetyl]amino]pyridine-3-propanoic acid, bis(trifluoroacetate)salt] are 150 nM and 0.45 nM.
On to `N=C(N)NCc1cccc(C(=O)NCC(=O)NC(CC(=O)O)c2cccnc2)c1` (racemic) [Example 85, (±)β-[[2-[[[3-[[(aminoiminomethyl)amino]methyl]phenyl]carbonyl]amino]acetyl]amino]pyridine-3-propanoic acid, bis(trifluoroacetate)salt], for which the IC50 is 8.07 nM in assay [1] and 6.65 nM in assay [2].
The matching figures for `CCOC(=O)CC(NC(=O)CNC(=O)c1cccc(NC(=O)Nc2ccccc2)c1)c1ccc2c(c1)OCO2` (stereo not drawn) [Example 123, ethyl β-[[2-[[[3-3-[[(phenylamino)carbonyl]amino]phenyl]carbonyl]amino]acetyl]amino]-1,3-benzodioxole-5-propanoate]: 85500 nM and 11800 nM.
Consider `C/N=C(/Nc1cccc(C(=O)NCC(=O)NC(CC(=O)O)c2ccc(F)cc2)c1)NC(C)C` (racemic) [Example 298, (±)4-fluoro-β-[[2-[[[3-[[[(1-methylethyl)amino](methylimino)methyl]amino]phenyl]carbonyl]amino]acetyl]amino]benzenepropanoic acid, trifluoroacetate salt], for which the results for the IC50 in assay [1] and in assay [2] were 5560 nM and 252 nM, respectively.
With `CCOC(=O)CC(NC(=O)CNC(=O)c1cccc(NC(=O)Nc2ccccc2)c1)c1cccnc1` (stereo not drawn) [Example 107, ethyl β-[[2-[[[3-[[(phenylamino]carbonyl]amino]phenyl]carbonyl]amino]acetyl]amino]-pyridine-3-propanoate], the results for the IC50 in assay [1] and in assay [2] were 18700 nM and 6400 nM, respectively.
